“Also recorded” adds a separate entry of the source. Where two headings read alike, the source gives them in different places.
Tests used:
G26 cells = assay: Survival assay (MTT), G26; assay type: cell-based, human; conditions: Homo sapiens, G26, Glioma, Grade IV, 72 hours
Experimental: (§1) Cells were passed between 70 and 90% confluence.
(§2) Cells were incubated with the drugs for 72 hours.

[1] = tested on: SF-188 grade IV glioma cells; assay: Apoptosis flow cytometry (Annexin V / 7AAD); assay type: cell-based, human; conditions: SF-188 cells, 100 μM, 72 hours
Experimental: 100,000 cells were seeded in a 6-well plate and incubated with 100 μM of Temozolomide, 2′-Deoxy-5-hydroxymethylcytidine, 5-Formyl-2′-deoxycytidine or DMSO for 72 hours. Detection of apoptotic cells was assessed using Annexin V-7-amino-actinomycin D (7-AAD) Apoptotic Detection Kit (Nordic Biosite AS, Cat. Nr. 640922) according to manufacturer's protocol.
Fluorescence-activated cell sorting analysis was performed on LSR Fortessa (BD Biosciences) and data were analyzed on FlowJo software. All experiments were performed in triplicates.
It was therefore evaluated whether 5-formyl-2′deoxycytidine and 5-hydroxymethyl-2′-deoxycytidine were killing sensitive cells or causing them to be delayed in the cell cycle. SF-188 grade IV glioma cells were treated either with DMSO, temozolomide, 5-formyl-2′-deoxycytidine, or 5-hydroxymethyl-2′-deoxycytidine at the indicated concentration. […] A majority of SF-188 cells treated with 5-formyl-2′-deoxycytidine or 5-hydroxymethyl-2′-deoxycytidine were dead according to the flow cytometry profile (FIG. 2A).

22Rv1 cells = assay: Survival assay (MTT), 22Rv1; assay type: cell-based, human; conditions: Homo sapiens
Experimental: as §1, §2

[2] = mouse, in vivo, ip
Experimental: 5-hydroxymethyl-2′-deoxycytidine and 5-formyl-2′-deoxycytidine (Berry and Associates), were formulated in dimethyl sulfoxide (DMSO)/Solutol (RTM) R HS15/phosphate buffered saline (PBS) (5/5/90, v/v/v) at the concentration of 30 and 200 and 400 mg/mL for IP administration at the dosing volume of […]. A dosing volume at 10 or 20 ml/kg was applied.
Male ICR mice weighing 23±3 g were provided by BioLasco Taiwan (under Charles River Laboratories Licensee). […] All animals were maintained in a hygienic environment with controlled temperature (20-24° C.), humidity (30%-70%) and 12 hours light/dark cycles. Free access to sterilized standard lab diet [MFG (Oriental Yeast Co., Ltd., Japan)] and autoclaved tap water were granted.
5-hydroxymethyl-2′-deoxycytidine and 5-formyl-2′-deoxycytidine were administered IP to groups of three male ICR mice weighing 23±3 g. Animals received an initial dose of 300 mg/kg. If the animals survived for 72 hours, the dose for the next cohort was increased. If one or more animals died, the dose for the next cohort was decreased. The testing stopped when all animals survived at the upper bound, or when three dose levels had been tested or when the upper or lower bound had been reached. […] Body weights were recorded pre-dose and at 72 hours. […] Gross necropsy was performed on all animals without tissue collection, and the next dose level was determined based on the study design table.
The maximum tolerated dose (MTD) of these compounds in mice was determined as described above (Materials and Methods). […] While the end-point of the study was survival after 72 hours, the presence of acute toxic symptoms (mortality, convulsions, tremors, muscle relaxation, sedation, etc.) and autonomic effects (diarrhea, salivation, lacrimation, vasodilation, piloerection, etc.) in the animals was monitored during the first 30 minutes, and again at 1, 24, 48 and 72 hours. Body weights were recorded pre-dose and at 72 hours.

H1573 cells = assay: Survival assay (MTT), H1573; assay type: cell-based; conditions: Homo sapiens, NCI-H1573
Experimental: as §1, §2

Buffy M cells = assay: Survival assay (MTT), Buffy M; assay type: cell-based, human; conditions: Homo sapiens, Normal, Bone Marrow, 72 hours
Experimental: as §1, §2
(§3) The present inventors further investigated the extent to which these compounds kill normal human cells; low cytotoxicity against normal human cells is advantageous property for anti-cancer agents. The cytotoxicity of these compounds in various normal human cell lines was therefore investigated (Table 3). Cells were grown and the survival assay was performed as described above (Materials and Methods).

[3] = tested on: normal (non-cancerous) human cell lines; assay: Survival assay, panel of normal (non-cancerous) human cell lines; assay type: cell-based; conditions: normal human cell lines of Table 3
Experimental: as §2, §3

human cancer cell lines = assay: Survival assay, range of human cancer cell lines; assay type: cell-based; conditions: cell lines of Table 1
Experimental: as §2
With the knowledge that 5-formyl-2′-deoxycytidine is cytotoxic to cervical carcinoma (HeLa) cells, the study was expanded in two directions: (i) a further compound was assessed: 5-carboxyl-2′-deoxycytidine; and (ii) their cytotoxic effects against a wide range of human cancer cell lines was assessed (Table 1).

Buffy C cells = assay: Survival assay (MTT), Buffy C; assay type: cell-based, human; conditions: Homo sapiens, Normal, Bone Marrow, 72 hours
Experimental: as §1, §2, §3

HAP1 cells = assay: Survival assay (MTT), HAP1; assay type: cell-based, human
Experimental: as §2

[4] = Multiple MTD, repeated dose; assay type: in vivo; conditions: mice, IP 300, 1000, 2000 mg/kg every three days, 5 doses
Experimental: The test compounds were dosed every three days for a total of 5 doses (q3dx5).
In addition, body weights were recorded before each treatment and at 24, 48 and 72 hours after the final administration.
Mice were injected with the indicated compound at the indicated dose intraperitoneally once every three days for a total of 5 doses.

Buffy A cells = assay: Survival assay (MTT), Buffy A; assay type: cell-based, human; conditions: Homo sapiens, Normal, Bone Marrow, 72 hours
Experimental: as §1, §2, §3

V79 cells = assay: Survival assay (MTT), V79; assay type: cell-based; conditions: Cricetulus griseus, V79, Chinese Hamster Lung, 72 hours
Experimental: as §1, §2

[5] = tested on: Hypoxanthine-guanine phosphoribosyltransferase (HPRT) gene in V79 cells; assay: HPRT mutagenicity assay; assay type: cell-based, Chinese Hamster; conditions: V79 cells, 1, 10, 100 μM, 24 hours
Experimental: HPRT mutagenicity assay was performed in V79 cells. 50,000 V79 cells were treated with three different concentrations of either d5hmC or d5fC (1, 10, 100 μM) for 24 hours in a 6 well plate. DMSO was used as a negative control. After the treatment, the cells were subcultured as needed in T75 flasks for 9 days to allow expression of HPRT-mutants. 10,000 cells were replated into 10 replica Petri dishes (100×15 mm) with selective media (2.5 μg/ml of 6TG).
Survival (relative plating efficiency) was determined by plating 200 cells into four replica Petri dishes (60×15 mm) without selective media. Colonies were fixed, Giemsa-stained and counted 7 days later. The mutant frequency is expressed as a total number of mutants counted on all plates divided by the number of cells seeded corrected by reseeding plating efficiency. Experiment was performed three times, data represent mean of triplicate±SEM.

[6] = 22Rv1, 72 h, 22Rv1, Prostate Carcinoma, 72 hours, MTT
[7] = Homo sapiens, HAP1, HAP1, Tables 6 and 7, unit inferred
[8] = 22Rv1, 22Rv1, Tables 6 and 7, unit inferred

SMILES | IC50 (G26 cells) [µM] | dead cells by flow cytometry (Annexin V, 7AAD) [1] | IC50 (22Rv1 cells; [6]) [µM] | tolerability of a single dose ([2]; 300 mg/kg) | tolerability of a single dose ([2]; 2000 mg/kg) | tolerability of a single dose ([2]; 8000 mg/kg) | IC50 (H1573 cells; H1573, Lung (metastatic adenocarcinoma), 72 hours, MTT) [µM] | IC50 (H1573 cells; H1573, Tables 6 and 7, unit inferred) [µM] | IC50 (Buffy M cells) [µM] | cytotoxicity to normal cell lines [3] | cytotoxicity in the cancer cell lines evaluated (human cancer cell lines) | IC50 (Buffy C cells) [µM] | IC50 (HAP1 cells; Homo sapiens, HAP1, 72 h, HAP1, Chronic Myelogenous Leukemia (CML), 72 hours, MTT) [µM] | IC50 (HAP1 cells; [7]) [µM] | body weight compared with untreated animals [4] | IC50 (22Rv1 cells; [8]) [µM] | IC50 (Buffy A cells) [µM] | IC50 (V79 cells) [µM] | mutagenicity / genotoxicity (HPRT mutant frequency) [5] | IC50 (HAP1 cells; HAP1, Chronic Myelogenous Leukemia (CML), 72 hours, MTT) [µM]
Cn1nnc2c(C(N)=O)ncn2c1=O [Temozolomide, 4-methyl-5-oxo-2,3,4,6,8-pentazabicyclo[4.3.0]nona-2,7,9-triene-9-carboxamide, reference compound] | 7.34 | slight increase in the amount of dead cells | > 25 |  |  |  |  |  |  |  |  |  |  |  |  |  |  |  |  | 
Nc1nc(=O)n([C@H]2C[C@H](O)[C@@H](CO)O2)cc1C=O [2d5fC, 5-formyl-2′-deoxycytidine] | 28.1 | dead and not arrested at a cell cycle checkpoint | > 25 | can tolerate | can tolerate | unable to tolerate | 7.72 | 7.72 | > 25 | cytotoxic only to one normal human cell line | cytotoxic to a wide range of human cancer cells | > 25 | > 25 | ≥ 25 | not statistically different | ≥ 25 | > 25 | > 25 | not to be mutagenic; also recorded: not mutagens | 
Nc1nc(=O)n([C@H]2C[C@H](O)[C@@H](CO)O2)cc1CO [2d5hmC, 5-hydroxymethyl-2′-deoxycytidine] | > 100 | dead and not arrested at a cell cycle checkpoint | > 25 | can tolerate | can tolerate | unable to tolerate |  |  | > 25 | not cytotoxic to any of the normal cell lines evaluated | only cytotoxic to two cell lines evaluated | > 25 |  | 6.53 | not statistically different | ≥ 25 | > 25 | > 25 | not to be mutagenic; also recorded: not mutagens | > 3.03
